≈ marks a conversion by molar mass, not a printed value.
Legend:
Type in all cases: functional
Enterococcus faecalis [1] = test: Antimicrobial activity against Enterococcus faecalis GC 2242 (VRE)
Escherichia coli [2] = test: Antimicrobial activity against Escherichia coli GC 4559
Escherichia coli [3] = test: Antimicrobial activity against Escherichia coli GC 4560
Enterococcus faecalis [4] = test: Antimicrobial activity against Enterococcus faecalis GC 4555 (ATCC)
[5] = Inhibitory activity against MurA from Escherichia coli
[6] = Inhibitory activity against MurB from Escherichia coli
[7] = Inhibitory activity against MurB from Staphylococcus aureus
[8] = Antimicrobial activity against MSCNS (methicillin-susceptible coagulase-negative staphylococci) GC 646; conditions: Staphylococcus
Staphylococcus aureus [9] = test: Antimicrobial activity against Staphylococcus aureus GC 1131 (MRSA)
Staphylococcus aureus [10] = test: Antimicrobial activity against Staphylococcus aureus GC 2216 (ATCC)
Staphylococcus aureus [11] = test: Antimicrobial activity against Staphylococcus aureus GC 4543 (MSSA)
Streptococcus pneumoniae [12] = test: Antimicrobial activity against Streptococcus pneumoniae GC1894 (PRSP) in the presence of 4% bovine serum albumin
Streptococcus pneumoniae [13] = test: Antimicrobial activity against Streptococcus pneumoniae GC1894 (PRSP)

Row | SMILES | MIC (Enterococcus faecalis [1]) [µg/mL] | MIC (Escherichia coli [2]) [µg/mL] | MIC (Escherichia coli [3]) [µg/mL] | MIC (Enterococcus faecalis [4]) [µg/mL] | IC50 [5] [µg/mL] | IC50 [6] [µg/mL] | IC50 [7] [µg/mL] | MIC [8] [µg/mL] | MIC (Staphylococcus aureus [9]) [µg/mL] | MIC (Staphylococcus aureus [10]) [µg/mL] | MIC (Staphylococcus aureus [11]) [µg/mL] | MIC (Streptococcus pneumoniae [12]) [µg/mL] | MIC (Streptococcus pneumoniae [13]) [µg/mL]
1 | CC(C)(C)c1nc(NC(=O)Nc2cccnc2)sc1C#N | > 128 | > 128 | > 128 | > 128 | 25 (≈ 83 µM) | 25 (≈ 83 µM) | 25 (≈ 83 µM) | > 128 | > 128 | > 128 | > 128 | > 128 | > 128
2 | CN[C@H](CC(C)C)C(=O)N[C@H]1C(=O)N[C@@H](CC(N)=O)C(=O)N[C@H]2C(=O)N[C@H]3C(=O)N[C@H](C(=O)N[C@H](C(=O)O)c4cc(O)cc(O)c4-c4cc3ccc4O)[C@H](O)c3ccc(c(Cl)c3)Oc3cc2cc(c3O[C@@H]2O[C@H](CO)[C@@H](O)[C@H](O)[C@H]2O[C@H]2C[C@](C)(N)[C@H](O)[C@H](C)O2)Oc2ccc(cc2Cl)[C@H]1O [VANCOMYCIN] | > 128 | > 128 | 0.25 (≈ 0.173 µM) | 2 (≈ 1.38 µM) | – | – | – | – | – | – | – | – | < 0.12
3 | O=C(Nc1ccc(Cl)c(Cl)c1)Nc1ncc([N+](=O)[O-])s1 | 1 (≈ 3 µM) | > 128 | 2 (≈ 6 µM) | 1 (≈ 3 µM) | 4.6 (≈ 13.8 µM) | 3.8 (≈ 11.4 µM) | 3 (≈ 9 µM) | 0.5 (≈ 1.5 µM) | 1 (≈ 3 µM) | 0.25 (≈ 0.75 µM) | 0.5 (≈ 1.5 µM) | 128 | 0.25 (≈ 0.75 µM)
4 | N#Cc1csc(NC(=O)Nc2ccc(Cl)c(Cl)c2)n1 | 2 (≈ 6.39 µM) | > 128 | 8 (≈ 25.5 µM) | 8 (≈ 25.5 µM) | > 25 | > 25 | 14 (≈ 44.7 µM) | 4 (≈ 12.8 µM) | 8 (≈ 25.5 µM) | 4 (≈ 12.8 µM) | 4 (≈ 12.8 µM) | 128 | < 0.12
5 | CC(C)(C)c1nc(NC(=O)Nc2ccc(Cl)c(Cl)c2)sc1C#N | < 0.12 | > 128 | 0.5 (≈ 1.35 µM) | 0.25 (≈ 0.677 µM) | 3.3 (≈ 8.94 µM) | 6.2 (≈ 16.8 µM) | 2.8 (≈ 7.58 µM) | < 0.12 | < 0.12 | < 0.12 | < 0.12 | 128 | < 0.12
6 | COc1nc(NC(=O)Nc2ccc(Cl)c(Cl)c2)sc1C#N | 4 (≈ 11.7 µM) | > 128 | > 128 | 32 (≈ 93.2 µM) | 21.6 (≈ 62.9 µM) | 9.8 (≈ 28.6 µM) | – | > 128 | > 128 | > 128 | > 128 | > 128 | > 128
7 | CC(C)COc1nc(NC(=O)Nc2ccc(Cl)c(Cl)c2)sc1C#N | 0.25 (≈ 0.649 µM) | > 128 | > 128 | 0.25 (≈ 0.649 µM) | > 25 | 5.8 (≈ 15.1 µM) | – | 0.25 (≈ 0.649 µM) | 0.5 (≈ 1.3 µM) | 0.5 (≈ 1.3 µM) | 0.25 (≈ 0.649 µM) | 128 | < 0.12
8 | O=C(Nc1ccc(Cl)c(Cl)c1)Nc1nccs1 | 4 (≈ 13.9 µM) | > 128 | 0.5 (≈ 1.74 µM) | 4 (≈ 13.9 µM) | 20 (≈ 69.4 µM) | > 25 | > 25 | 2 (≈ 6.94 µM) | 2 (≈ 6.94 µM) | 2 (≈ 6.94 µM) | 2 (≈ 6.94 µM) | > 128 | 0.5 (≈ 1.74 µM)
9 | N#Cc1cnc(NC(=O)Nc2ccc(F)c(F)c2)s1 | 4 (≈ 14.3 µM) | 8 (≈ 28.5 µM) | 4 (≈ 14.3 µM) | 4 (≈ 14.3 µM) | > 25 | 19 (≈ 67.8 µM) | – | 4 (≈ 14.3 µM) | 4 (≈ 14.3 µM) | 4 (≈ 14.3 µM) | 2 (≈ 7.14 µM) | 64 | 0.5 (≈ 1.78 µM)
10 | CC(C)(C)c1nc(NC(=O)Nc2cccc(C#N)c2)sc1C#N | 8 (≈ 24.6 µM) | > 128 | > 128 | 16 (≈ 49.2 µM) | > 25 | > 25 | > 25 | > 128 | > 128 | > 128 | > 128 | > 128 | 8 (≈ 24.6 µM)
11 | N#Cc1sc(NC(=O)Nc2ccc(Cl)c(Cl)c2)nc1Cl | 0.25 (≈ 0.719 µM) | > 128 | 0.5 (≈ 1.44 µM) | 0.5 (≈ 1.44 µM) | > 25 | > 25 | > 25 | 0.5 (≈ 1.44 µM) | 0.5 (≈ 1.44 µM) | 0.25 (≈ 0.719 µM) | 0.25 (≈ 0.719 µM) | > 128 | < 0.12
12 | N#Cc1cnc(NC(=O)Nc2ccc(Cl)c(Cl)c2)s1 | 0.5 (≈ 1.6 µM) | > 128 | 4 (≈ 12.8 µM) | 1 (≈ 3.19 µM) | 12.6 (≈ 40.2 µM) | 4.5 (≈ 14.4 µM) | 5.6 (≈ 17.9 µM) | 1 (≈ 3.19 µM) | 1 (≈ 3.19 µM) | 0.5 (≈ 1.6 µM) | 0.5 (≈ 1.6 µM) | 128 | < 0.12
13 | N#Cc1sc(NC(=O)Nc2ccc(Cl)c(Cl)c2)nc1N1CCOCC1 | 128 (≈ 321 µM) | > 128 | > 128 | > 128 | > 25 | > 25 | 13 (≈ 32.6 µM) | > 128 | > 128 | > 128 | > 128 | > 128 | > 128
14 | CC(C)(C)c1nc(NC(=O)NCc2ccc(Cl)c(Cl)c2)sc1C#N | 0.5 (≈ 1.3 µM) | > 128 | 2 (≈ 5.22 µM) | 1 (≈ 2.61 µM) | 20.8 (≈ 54.3 µM) | > 25 | 11 (≈ 28.7 µM) | 1 (≈ 2.61 µM) | 1 (≈ 2.61 µM) | 0.25 (≈ 0.652 µM) | 0.5 (≈ 1.3 µM) | 128 | < 0.12
15 | CC(C)(C)c1nc(NC(=O)OCc2ccc(Cl)c(Cl)c2)sc1C#N | 1 (≈ 2.6 µM) | > 128 | > 128 | 2 (≈ 5.2 µM) | 25 (≈ 65.1 µM) | 18 (≈ 46.8 µM) | – | > 128 | 2 (≈ 5.2 µM) | 8 (≈ 20.8 µM) | 1 (≈ 2.6 µM) | > 128 | 0.25 (≈ 0.651 µM)
16 | CCOc1nc(NC(=O)Nc2ccc(Cl)c(Cl)c2)sc1C#N | 0.5 (≈ 1.4 µM) | > 128 | 0.5 (≈ 1.4 µM) | > 128 | > 25 | 23 (≈ 64.4 µM) | – | 0.5 (≈ 1.4 µM) | 1 (≈ 2.8 µM) | 0.5 (≈ 1.4 µM) | 0.5 (≈ 1.4 µM) | 128 | < 0.12
17 | CC(C)(C)c1nc(NC(=O)Nc2ccc(F)c(F)c2)sc1C#N | 0.5 (≈ 1.49 µM) | > 128 | 1 (≈ 2.97 µM) | 1 (≈ 2.97 µM) | > 25 | > 25 | – | 0.5 (≈ 1.49 µM) | < 0.12 | < 0.12 | < 0.12 | 128 | < 0.12

Reference: ChEMBL document CHEMBL1137071, “Phenyl thiazolyl urea and carbamate derivatives as new inhibitors of bacterial cell-wall biosynthesis” (Bioorg Med Chem Lett, 2004)
